Assay results from patent publication US20260325685A1, “Radiopharmaceutical Compositions Targeting Carbonic Anhydrase IX and Uses Thereof” (RayzeBio, Inc., priority 2023, published 2026).

Assays:
human CA-XII = target: T1, human CA-XII (Homo sapiens, UniProt O43570); assay: Surface Plasmon Resonance (SPR) binding kinetics to recombinant human CA-XII (Biacore 8K, single-cycle kinetics, 1:1 binding model); details: Chelated Metal: Lu-175, 25° C., pH 7.4, read-out: CAXII KD
T1 construct: purchased Creative BioMart CA12-261H
T1 sequence (O43570 25-354): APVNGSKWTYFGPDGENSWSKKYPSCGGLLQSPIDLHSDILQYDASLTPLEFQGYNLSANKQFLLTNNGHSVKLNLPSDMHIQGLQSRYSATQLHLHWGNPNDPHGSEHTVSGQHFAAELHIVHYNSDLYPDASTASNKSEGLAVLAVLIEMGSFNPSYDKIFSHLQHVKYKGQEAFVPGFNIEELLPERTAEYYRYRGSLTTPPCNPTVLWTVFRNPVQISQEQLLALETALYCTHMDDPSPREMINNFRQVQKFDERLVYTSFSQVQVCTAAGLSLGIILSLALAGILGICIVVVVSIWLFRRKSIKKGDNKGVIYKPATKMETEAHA
Outline: (§1)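 Streptavidin capture, 1200-1800 RU; capture injection 180 s (CA-IX) vs 75 s (CA-XII). Analyte 100-0.39 nM, 9 conc., PBS-P+ pH 7.4 + 1% DMSO, 25° C. On 120 s, off 1200 s; ka/kd after reference subtraction and DMSO correction.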

human CA-IX = target: T2, human CA-IX (Homo sapiens, UniProt Q16790); assay: Surface Plasmon Resonance (SPR) binding kinetics to recombinant human CA-IX (Biacore 8K, single-cycle kinetics, 1:1 binding model); details: Chelated Metal: Lu-175; SPR, 25° C., pH 7.4; read-out: CAIX KD
T2 construct: purchased Acro CA9-H82E3
Outline: as §1

SMILES | Kd (human CA-XII) | Kd (human CA-IX)
CC(CCC(=O)N[C@@H](CC(=O)N[C@@H](CC(=O)N1CCN(C(=O)CN2CCN(CC(=O)O)CCN(CC(=O)O)CCN(CC(=O)O)CC2)C[C@H]1C(=O)NCCn1cc(C23CC(C(=O)Nc4nnc(S(N)(=O)=O)s4)(C2)C3)nn1)C(=O)O)C(=O)O)(c1ccccc1)c1ccc(O)cc1.[Lu+3] (stereo partly drawn) [Compound 109.33] | > 10 nM | 1 to 2.5 nM
NS(=O)(=O)c1nnc(NC(=O)C23CC(c4cn(CCNC(=O)[C@@H]5CN(C(=O)CN6CCN(CC(=O)O)CCN(CC(=O)O)CCN(CC(=O)O)CC6)CCN5C(=O)C[C@H](NC(=O)C[C@H](NC(=O)Cn5nc(-c6ccc(O)cc6)c6ccc(O)cc65)C(=O)O)C(=O)O)nn4)(C2)C3)s1.[Lu+3] [Compound 109.34] | 2.5 to 10 nM | < 1 nM
NS(=O)(=O)c1nnc(NC(=O)C23CC(c4cn(CCNC(=O)[C@@H]5CN(C(=O)CN6CCN(CC(=O)O)CCN(CC(=O)O)CCN(CC(=O)O)CC6)CCN5C(=O)C[C@H](NC(=O)C[C@H](NC(=O)c5ccc(C(F)(F)F)cc5)C(=O)O)C(=O)O)nn4)(C2)C3)s1.[Lu+3] [Compound 109.35] | 2.5 to 10 nM | 1 to 2.5 nM
NS(=O)(=O)c1nnc(NC(=O)C23CC(c4cn(CCNC(=O)[C@@H]5CN(C(=O)CN6CCN(CC(=O)O)CCN(CC(=O)O)CCN(CC(=O)O)CC6)CCN5C(=O)C[C@H](NC(=O)C[C@H](NC(=O)CCCc5ccc6c(c5)CCCC6)C(=O)O)C(=O)O)nn4)(C2)C3)s1.[Lu+3] [Compound 109.36] | 2.5 to 10 nM | 1 to 2.5 nM
NS(=O)(=O)c1nnc(NC(=O)C23CC(c4cn(CCNC(=O)[C@@H]5CN(C(=O)CN6CCN(CC(=O)O)CCN(CC(=O)O)CCN(CC(=O)O)CC6)CCN5C(=O)C[C@H](NC(=O)C[C@H](NC(=O)CCCc5ccc(Cl)cc5)C(=O)O)C(=O)O)nn4)(C2)C3)s1.[Lu+3] [Compound 109.37] | 2.5 to 10 nM | < 1 nM
NS(=O)(=O)c1nnc(NC(=O)C23CC(c4cn(CCNC(=O)[C@@H]5CN(C(=O)CN6CCN(CC(=O)O)CCN(CC(=O)O)CCN(CC(=O)O)CC6)CCN5C(=O)C[C@H](NC(=O)C[C@H](NC(=O)c5ccc(CC6CC6)cc5)C(=O)O)C(=O)O)nn4)(C2)C3)s1.[Lu+3] [Compound 109.38] | 2.5 to 10 nM | < 1 nM
CC(C)c1ccc(C(=O)N[C@@H](CC(=O)N[C@@H](CC(=O)N2CCN(C(=O)CN3CCN(CC(=O)O)CCN(CC(=O)O)CCN(CC(=O)O)CC3)C[C@H]2C(=O)NCCn2cc(C34CC(C(=O)Nc5nnc(S(N)(=O)=O)s5)(C3)C4)nn2)C(=O)O)C(=O)O)cc1.[Lu+3] [Compound 109.39] | 2.5 to 10 nM | 1 to 2.5 nM
CC(CCCC(=O)N1CCCC[C@H]1C(=O)N[C@@H](CC(=O)N1CCN(C(=O)CN2CCN(CC(=O)O)CCN(CC(=O)O)CCN(CC(=O)O)CC2)C[C@@H]1C(=O)NCCn1cc(C23CC(C(=O)Nc4nnc(S(N)(=O)=O)s4)(C2)C3)nn1)C(=O)O)(c1ccc(O)cc1)c1ccc(O)cc1.[Lu+3] [Compound 109.40] | > 10 nM | < 1 nM
NS(=O)(=O)c1nnc(NC(=O)C23CCC(c4cn(CCNC(=O)[C@@H]5CN(C(=O)CN6CCN(CC(=O)O)CCN(CC(=O)O)CCN(CC(=O)O)CC6)CCN5C(=O)CC[C@H](NC(=O)C[C@H](NC(=O)Cc5[nH]nc6ccc(O)cc56)C(=O)O)C(=O)O)nn4)(CC2)CC3)s1.[Lu+3] [Compound 109.41] | < 1 nM | < 1 nM
NS(=O)(=O)c1nnc(NC(=O)C23CCC(c4cn(CCNC(=O)[C@@H]5CN(C(=O)CN6CCN(CC(=O)O)CCN(CC(=O)O)CCN(CC(=O)O)CC6)CCN5C(=O)CC[C@H](NC(=O)C[C@H](NC(=O)CCCc5ccc(O)cc5)C(=O)O)C(=O)O)nn4)(CC2)CC3)s1.[Lu+3] [Compound 109.42] | < 1 nM | < 1 nM
NS(=O)(=O)c1nnc(NC(=O)C23CCC(c4cn(CCNC(=O)[C@@H]5CN(C(=O)CN6CCN(CC(=O)O)CCN(CC(=O)O)CCN(CC(=O)O)CC6)CCN5C(=O)CC[C@H](NC(=O)C[C@H](NC(=O)CCc5ccc(O)cc5)C(=O)O)C(=O)O)nn4)(CC2)CC3)s1.[Lu+3] [Compound 109.43] | < 1 nM | < 1 nM
NS(=O)(=O)c1nnc(NC(=O)C23CCC(c4cn(CCNC(=O)[C@@H]5CN(C(=O)CN6CCN(CC(=O)O)CCN(CC(=O)O)CCN(CC(=O)O)CC6)CCN5C(=O)CC[C@H](NC(=O)C[C@H](NC(=O)CCC5CCCCC5)C(=O)O)C(=O)O)nn4)(CC2)CC3)s1.[Lu+3] [Compound 109.44] | < 1 nM | < 1 nM
NS(=O)(=O)c1nnc(NC(=O)C23CCC(c4cn(CCNC(=O)[C@@H]5CN(C(=O)CN6CCN(CC(=O)O)CCN(CC(=O)O)CCN(CC(=O)O)CC6)CCN5C(=O)CC[C@H](NC(=O)C[C@H](NC(=O)c5n[nH]c6ccc(O)cc56)C(=O)O)C(=O)O)nn4)(CC2)CC3)s1.[Lu+3] [Compound 109.45] | < 1 nM | < 1 nM
NS(=O)(=O)c1nnc(NC(=O)C23CCC(c4cn(CCNC(=O)[C@@H]5CN(C(=O)CN6CCN(CC(=O)O)CCN(CC(=O)O)CCN(CC(=O)O)CC6)CCN5C(=O)CC[C@H](NC(=O)C[C@H](NC(=O)CCC5CCCCCC5)C(=O)O)C(=O)O)nn4)(CC2)CC3)s1.[Lu+3] [Compound 109.46] | < 1 nM | < 1 nM
NS(=O)(=O)c1nnc(NC(=O)C23CCC(c4cn(CCNC(=O)[C@@H]5CN(C(=O)CN6CCN(CC(=O)O)CCN(CC(=O)O)CCN(CC(=O)O)CC6)CCN5C(=O)CC[C@H](NC(=O)C[C@H](NC(=O)c5cc(C(F)(F)F)[nH]n5)C(=O)O)C(=O)O)nn4)(CC2)CC3)s1.[Lu+3] [Compound 109.47] | < 1 nM | < 1 nM
NS(=O)(=O)c1nnc(NC(=O)C23CCC(c4cn(CCNC(=O)[C@@H]5CN(C(=O)CN6CCN(CC(=O)O)CCN(CC(=O)O)CCN(CC(=O)O)CC6)CCN5C(=O)CC[C@H](NC(=O)C[C@H](NC(=O)CCC5CC5)C(=O)O)C(=O)O)nn4)(CC2)CC3)s1.[Lu+3] [Compound 109.48] | < 1 nM | < 1 nM
Cc1c(C(F)(F)F)n[nH]c1C(=O)N[C@@H](CC(=O)N[C@@H](CCC(=O)N1CCN(C(=O)CN2CCN(CC(=O)O)CCN(CC(=O)O)CCN(CC(=O)O)CC2)C[C@H]1C(=O)NCCn1cc(C23CCC(C(=O)Nc4nnc(S(N)(=O)=O)s4)(CC2)CC3)nn1)C(=O)O)C(=O)O.[Lu+3] [Compound 109.49] | < 1 nM | < 1 nM
NS(=O)(=O)c1nnc(NC(=O)C23CCC(c4cn(CCNC(=O)[C@@H]5CN(C(=O)CN6CCN(CC(=O)O)CCN(CC(=O)O)CCN(CC(=O)O)CC6)CCN5C(=O)CC[C@H](NC(=O)C[C@H](NC(=O)c5n[nH]c6ccccc56)C(=O)O)C(=O)O)nn4)(CC2)CC3)s1.[Lu+3] [Compound 109.50] | < 1 nM | < 1 nM
NS(=O)(=O)c1nnc(NC(=O)C23CCC(c4cn(CCNC(=O)[C@@H]5CN(C(=O)CN6CCN(CC(=O)O)CCN(CC(=O)O)CCN(CC(=O)O)CC6)CCN5C(=O)CC[C@H](NC(=O)C[C@H](NC(=O)C5CC6(CCC6)C5)C(=O)O)C(=O)O)nn4)(CC2)CC3)s1.[Lu+3] [Compound 109.51] | < 1 nM | < 1 nM
NS(=O)(=O)c1nnc(NC(=O)C23CCC(c4cn(CCNC(=O)[C@@H]5CN(C(=O)CN6CCN(CC(=O)O)CCN(CC(=O)O)CCN(CC(=O)O)CC6)CCN5C(=O)CC[C@H](NC(=O)C[C@H](NC(=O)CCC(F)(F)F)C(=O)O)C(=O)O)nn4)(CC2)CC3)s1.[Lu+3] [Compound 109.53] | < 1 nM | < 1 nM
NS(=O)(=O)c1nnc(NC(=O)C23CCC(c4cn(CCNC(=O)[C@@H]5CN(C(=O)CN6CCN(CC(=O)O)CCN(CC(=O)O)CCN(CC(=O)O)CC6)CCN5C(=O)CC[C@H](NC(=O)C[C@H](NC(=O)c5ccc(C6CC6)cc5)C(=O)O)C(=O)O)nn4)(CC2)CC3)s1.[Lu+3] [Compound 109.54] | < 1 nM | < 1 nM
NS(=O)(=O)c1nnc(NC(=O)C23CCC(c4cn(CCNC(=O)[C@@H]5CN(C(=O)CN6CCN(CC(=O)O)CCN(CC(=O)O)CCN(CC(=O)O)CC6)CCN5C(=O)CC[C@H](NC(=O)C[C@H](NC(=O)c5ccc(C6CCCCC6)cc5)C(=O)O)C(=O)O)nn4)(CC2)CC3)s1.[Lu+3] [Compound 109.55] | < 1 nM | < 1 nM
NS(=O)(=O)c1nnc(NC(=O)C23CCC(c4cn(CCNC(=O)[C@@H]5CN(C(=O)CN6CCN(CC(=O)O)CCN(CC(=O)O)CCN(CC(=O)O)CC6)CCN5C(=O)CC[C@H](NC(=O)C[C@H](NC(=O)c5ccc(C6CC6)nc5)C(=O)O)C(=O)O)nn4)(CC2)CC3)s1.[Lu+3] [Compound 109.56] | 1 to 2.5 nM | < 1 nM
NS(=O)(=O)c1nnc(NC(=O)C23CCC(c4cn(CCNC(=O)[C@@H]5CN(C(=O)CN6CCN(CC(=O)O)CCN(CC(=O)O)CCN(CC(=O)O)CC6)CCN5C(=O)CC[C@H](NC(=O)C[C@H](NC(=O)CCC56CCC(CC5)C6)C(=O)O)C(=O)O)nn4)(CC2)CC3)s1.[Lu+3] [Compound 109.57] | < 1 nM | < 1 nM
NS(=O)(=O)c1nnc(NC(=O)C23CCC(c4cn(CCNC(=O)[C@@H]5CN(C(=O)CN6CCN(CC(=O)O)CCN(CC(=O)O)CCN(CC(=O)O)CC6)CCN5C(=O)CC[C@H](NC(=O)C[C@H](NC(=O)c5ccc(S(F)(F)(F)(F)F)cc5)C(=O)O)C(=O)O)nn4)(CC2)CC3)s1.[Lu+3] [Compound 109.58] | < 1 nM | < 1 nM
NS(=O)(=O)c1nnc(NC(=O)C23CCC(c4cn(CCNC(=O)[C@@H]5CN(C(=O)CN6CCN(CC(=O)O)CCN(CC(=O)O)CCN(CC(=O)O)CC6)CCN5C(=O)CC[C@H](NC(=O)C[C@H](NC(=O)c5coc(C(F)(F)F)n5)C(=O)O)C(=O)O)nn4)(CC2)CC3)s1.[Lu+3] [Compound 109.59] | < 1 nM | < 1 nM
N[C@@H](CC(=O)N[C@@H](CCC(=O)N1CCN(C(=O)CN2CCN(CC(=O)O)CCN(CC(=O)O)CCN(CC(=O)O)CC2)C[C@H]1C(=O)NCCn1cc(C23CCC(C(=O)Nc4nnc(S(N)(=O)=O)s4)(CC2)CC3)nn1)C(=O)O)C(=O)O.[Lu+3] [Compound 109.60] | 1 to 2.5 nM | < 1 nM
